Data published in US5879659A, “Ternary radiopharmaceutical complexes” (DuPont Pharmaceuticals Company, priority 1997, dated 1999).

Tested on: thrombi
Assay: Canine Arteriovenous Shunt model
Format: in vivo, dog
Conditions: first 1 hour shunt period, 150 μCi/kg, i.v.
Experimental: Canine Arteriovenous Shunt Model: Adult mongrel dogs of either sex (9-13 kg) were anesthetized with pentobarbital sodium (35 mg/kg,i.v.) and ventilated with room air via an endotracheal tube (12 strokes/min, 25 ml/kg). For arterial pressure determination, the left carotid artery was cannulated with a saline-filled polyethylene catheter (PE-240) and connected to a Statham pressure transducer (P23ID; Oxnard, Calif.). Mean arterial blood pressure was determined via damping the pulsatile pressure signal. Heart rate was monitored using a cardiotachometer (Biotach, Grass Quincy, Mass.) triggered from a lead II electrocardiogram generated by limb leads. A jugular vein was cannulated (PE-240) for drug administration. The both femoral arteries and femoral veins were cannulated with silicon treated (Sigmacote, Sigma Chemical Co. St Louis, Mo.), saline filled polyethylene tubing (PE-200) and connected with a 5 cm section of silicon treated tubing (PE-240) to form an extracorporeal arterio-venous shunts (A-V). Shunt patency was monitored using a doppler flow system (model VF-1, Crystal Biotech Inc, Hopkinton, Mass.) and flow probe (2-2.3 mm, Titronics Med. Inst., Iowa City, Iowa) placed proximal to the locus of the shunt. All parameters were monitored continuously on a polygraph recorder (model 7D Grass) at a paper speed of 10 mm/min or 25 mm/sec.
On completion of a 15 min post surgical stabilization period, an occlusive thrombus was formed by the introduction of a thrombogenic surface (4-0 braided silk thread, 5 cm in length, Ethicon Inc., Somerville, N.J.) into the shunt one shunt with the other serving as a control. Two consecutive 1 hr shunt periods were employed with the test agent administered as an infusion over 5 min beginning 5 min before insertion of the thrombogenic surface. At the end of each 1 hr shunt period the silk was carefully removed and weighed and the % incorporation determined via well counting. Thrombus weight was calculated by subtracting the weight of the silk prior to placement from the total weight of the silk on removal from the shunt. […]

^99m Tc(tricine) (tris(1-pyrazolyl)borohydride)-Cyclo(D-Val-NMeArg-Gly-Asp-Mamb(hydrazino-nicotinyl-5-Aca)) [Example 1]
uptake in thrombi compared with positive control (In-111-platelets) and negative controls (Tc-99m-albumin, I-125-fibrinogen) (mixed arterial and venous conditions): taken up in thrombi under both mixed arterial and venous conditions equivalently to the positive control and to a significantly greater extent than the negative controls | thrombus-to-blood ratio (target-to-background ratio) (mixed arterial conditions): 114 | thrombus-to-blood ratio (target-to-background ratio) (venous conditions): 3.1
